Results on 21 compounds are retold here after patent US11918582B2 (RAPT Therapeutics, Inc., priority 2021, dated 2024).

In general, pIC50 refers to −log10 of the IC50, conventionally taken in molar units.

This experiment deals with T1, human HPK1 (MAP4K1) (Homo sapiens, UniProt Q92918).
T1 construct: Recombinant human HPK1 kinase domain was obtained from ThermoFisher (Cat. #PV6357) and SignalChem (Cat. #M23-11G); purchased ThermoFisher; SignalChem PV6357; M23-11G
T1 sequence (Q92918 17-274 limits assumed): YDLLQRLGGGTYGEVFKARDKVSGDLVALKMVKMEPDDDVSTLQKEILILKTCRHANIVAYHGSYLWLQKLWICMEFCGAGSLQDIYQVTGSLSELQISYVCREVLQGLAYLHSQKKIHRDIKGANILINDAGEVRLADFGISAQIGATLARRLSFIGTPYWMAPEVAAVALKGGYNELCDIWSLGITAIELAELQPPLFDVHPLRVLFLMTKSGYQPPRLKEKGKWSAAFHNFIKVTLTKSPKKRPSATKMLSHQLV
As to the kind of experiment: Biochemical assay for activity against HPK1 (ADP-Glo, MBP substrate). The note with it: recombinant human HPK1 kinase domain, 1 nM enzyme, ADP-Glo luminescence. From the text: These compounds are made by the synthetic methods described earlier herein. Example 227 Biochemical Assay for Testing Compounds for Activity against HPK1
The enzymatic activity of human HPK1 (MAP4K1) was monitored in a biochemical assay in the presence or absence of compounds, using a peptide substrate (myelin basic protein, MBP), with an ADP-Glo assay kit (Promega, Cat. #V9103). An increase in phosphorylation of the peptide by HPK1 was indicative of its kinase activity.
Recombinant human HPK1 kinase domain was obtained from ThermoFisher (Cat. #PV6357) and SignalChem (Cat. #M23-11G). A 1 nM HPK1 kinase enzyme solution was prepared from the HPK1 stock received from the commercial supplier using an assay buffer containing 50 mM HEPES (4-(2-hydroxyethyl)-1-piperazineethanesulfonic acid) pH 7.5 (Fisher Scientific, Cat. #H1035), 150 mM NaCl (Fisher Scientific, Cat. #50843067), 3 mM TCEP-HCl (Tris(2-carboxyethyl)phosphine hydrochloride; Fisher Scientific, Cat. #PIPG82080), 10 mM MgCl2 (Fisher Scientific, Cat. #AM9530G), 0.005% Tween-20 (Fisher Scientific, Cat. #BP337500) and 0.01% BSA (bovine serum albumin; ThermoFisher, Cat. #15260037), in ultra-pure water. The final concentration of the assay buffer was 770 nM. A 5 mM stock solution of the peptide substrate was prepared using […] MBP (Myelin Basic Protein, Active Motif, Cat. #31314), 10 mM ATP (adenosine 5′-triphosphate; Sigma-Aldrich, Cat. #GE27-2056-01) and of assay buffer.
Test compounds were dissolved in DMSO (dimethyl sulfoxide) at 10 mM and then serial dilutions were prepared using a ViaFlow assist multichannel dispenser (Integra ViaFlo). 20 nL of test compounds at various concentrations were dispensed into a 1536-well assay plate (Corning Cat. #7247) using an Echo Nanoliter dispenser (Labcyte ECHO 550). […] of a 1 nM solution of HPK1 kinase enzyme diluted in assay buffer was added to the compound-containing plate using a Mantis Microliter dispenser (Formulatrix Mantis), covered with a lid, and incubated for 15 minutes at room temperature. 50 nL of a 5 mM stock solution of the peptide substrate (MBP) were added using the Echo Nanoliter dispenser. The plate was covered with a lid, centrifugated at 500 rpm for 1 minute and incubated for 2 hours at room temperature. […] of ADP-Glo reagent A was added using the Mantis Microliter dispenser, centrifugated at 500 rpm for 30 seconds and incubated for 40 minutes at room temperature. […] of ADP-Glo reagent B was added using the Mantis Microliter dispenser, centrifugated at 500 rpm for 30 seconds and incubated for 30 minutes at room temperature. Peptide phosphorylation was measured by luminescence on an Envision plate reader (PerkinElmer).
The HPK1 biochemical IC50 activity levels of the compounds of Examples 1-225 were tested using this assay and are shown in Table 2.
(In general: ADP-Glo first removes unused ATP, then detects ADP through luciferase.)

pIC50: −log10 of the molar value. Structures can show the parent of a compound that is named as a salt.

In the case of `COc1cc2c(cc1Nc1ncc3cnn(C4CC(CO)(CO)C4)c3n1)CN(C)CC2` [Example 77, [1-(hydroxymethyl)-3-[6-[(6-methoxy-2-methyl-3,4-dihydro-1H-isoquinolin-7-yl)amino]pyrazolo[3,4-d]pyrimidin-1-yl]cyclobutyl]dimethanol], the pIC50 was > 7.00.

Turning to `COC(C)(C)CCn1ncc2cnc(Nc3ccc4c(c3)CN(C)CC4)nc21` [Example 11, N-(1-(3-methoxy-3-methylbutyl)-1H-pyrazolo[3,4-d]pyrimidin-6-yl)-2-methyl-1,2,3,4-tetrahydroisoquinolin-7-amine], the pIC50 is > 7.00.

With `CC(=O)N1CCC[C@H]1Cn1ncc2cnc(Nc3cc4c(c(C(F)(F)F)c3)CCN(C)C4)nc21` [Example 62, (S)-1-(2-((6-((2-methyl-5-(trifluoromethyl)-1,2,3,4-tetrahydroisoquinolin-7-yl)amino)-1H-pyrazolo[3,4-d]pyrimidin-1-yl)methyl)182thenone182ne-1-yl)ethan-1-one], the pIC50 is > 7.00.

As to `COc1cc2c(cc1Nc1ncc3cnn(C4CCC(C)(CO)CC4)c3n1)CN(C)CC2` (mixture of isomers) [Example 75, [4-[6-[(6-methoxy-2-methyl-3,4-dihydro-1H-isoquinolin-7-yl)amino]pyrazolo[3,4-d]pyrimidin-1-yl]-1-methyl-cyclohexyl]methanol], the pIC50 is < 6.60.

Take `CN1CCc2ccc(Nc3ncc4cnn(C5CCNCC5)c4n3)cc2C1` [Example 16, 2-methyl-N-(1-(piperidin-4-yl)-1H-pyrazolo[3,4-d]pyrimidin-6-yl)-1,2,3,4-tetrahydroisoquinolin-7-amine hydrochloride]: the pIC50 is > 7.00.

Regarding `CN1CCc2ccc(Nc3ncc4cnn(C5CC6(COC6)C5)c4n3)cc2C1` [Example 13, N-(1-(2-oxaspiro[3.3]heptan-6-yl)-1H-pyrazolo[3,4-d]pyrimidin-6-yl)-2-methyl-1,2,3,4-tetrahydroisoquinolin-7-amine], the negative-log IC50 (pIC50) is > 7.00.

On to `COc1cc2c(cc1Nc1ncc3cnn(C[C@@H]4CCCN4C(C)=O)c3n1)[C@H](C)N(C)CC2` [Example 185, 1-((S)-2-((6-(((S)-6-methoxy-1,2-dimethyl-1,2,3,4-tetrahydroisoquinolin-7-yl)amino)-1H-pyrazolo[3,4-d]pyrimidin-1-yl)methyl)pyrrolidin-1-yl)ethan-1-one hydrochloride], for which the pIC50 is > 7.00.

For the compound `CNC(=O)[C@]1(C)C[C@@H](n2ncc3cnc(Nc4cc5c(cc4OC)CCN(C)C5)nc32)C1` [Example 73, trans-3-[6-[(6-methoxy-2-methyl-3,4-dihydro-1H-isoquinolin-7-yl)amino]pyrazolo[3,4-d]pyrimidin-1-yl]-N,1-methyl-cyclobutanecarboxamide], the pIC50 is > 7.00.

For the compound `CCC1CCCCC1n1ncc2cnc(Nc3cc4c(cc3OC)CCN(C)C4)nc21` (stereo not drawn) [Example 25, N-(1-(2-ethylcyclohexyl)-1H-pyrazolo[3,4-d]pyrimidin-6-yl)-6-methoxy-2-methyl-1,2,3,4-tetrahydroisoquinolin-7-amine], the pIC50 was > 7.00.

As for `COc1cc2c(cc1Nc1ncc3c(C)nn([C@H]4CC[C@H](CO)CC4)c3n1)CN(C)CC2` [Example 68, trans-[4-[6-[(6-methoxy-2-methyl-3,4-dihydro-1H-isoquinolin-7-yl)amino]-3-methyl-pyrazolo[3,4-d]pyrimidin-1-yl]cyclohexyl]methanol], the pIC50 was > 7.00.

Take `COc1cc2c(cc1Nc1ncc3cnn(CCC(C)(C)O)c3n1)CN(C)CC2` [Example 85, 4-[6-[(6-methoxy-2-methyl-3,4-dihydro-1H-isoquinolin-7-yl)amino]pyrazolo[3,4-d]pyrimidin-1-yl]-2-methyl-butan-2-ol]: the pIC50 was > 7.00.

Consider `CO[C@H]1CC[C@H](n2ncc3cnc(Nc4ccc5c(c4)CN(C)CC5)nc32)CC1` [Example 35, N-(1-((1r,4r)-4-methoxycyclohexyl)-1H-pyrazolo[3,4-d]pyrimidin-6-yl)-2-methyl-1,2,3,4-tetrahydroisoquinolin-7-amine], for which the pIC50 is > 7.00.

For `COc1cc2c(cc1Nc1ncc3cnn(C[C@@H]4CC[C@H](O)CN4C(C)=O)c3n1)CN(C)CC2` [Example 224, 1-((2S,5S)-5-hydroxy-2-((6-((6-methoxy-2-methyl-1,2,3,4-tetrahydroisoquinolin-7-yl)amino)-1H-pyrazolo[3,4-d]pyrimidin-1-yl)methyl)piperidin-1-yl)ethan-1-one], the negative logarithm of the IC50 (pIC50) is > 7.00.

Regarding `COc1cc2c(cc1Nc1ncc3cnn([C@H]4CC[C@H](C(N)=O)C4)c3n1)CN(C)CC2` (racemic) [Example 42, rac-(1S,3S)-3-(6-((6-methoxy-2-methyl-1,2,3,4-tetrahydroisoquinolin-7-yl)amino)-1H-pyrazolo[3,4-d]pyrimidin-1-yl)cyclopentane-1-carboxamide], the pIC50 was > 7.00.

Take `COc1cc2c(cc1Nc1ncc3cnn([C@H]4C[C@H](CNS(C)(=O)=O)C4)c3n1)CN(C)CC2` [Example 121, N-((trans-3-(6-((6-methoxy-2-methyl-1,2,3,4-tetrahydroisoquinolin-7-yl)amino)-1H-pyrazolo[3,4-d]pyrimidin-1-yl)cyclobutyl)methyl)methanesulfonamide trifluoroacetate]: the negative logarithm of the IC50 (pIC50) is > 7.00.

In the case of `COc1cc2c(cc1Nc1ncc3cnn(CCN(C)C(C)=O)c3n1)CN(C)CC2` [Example 91, N-[2-[6-[(6-methoxy-2-methyl-3,4-dihydro-1H-isoquinolin-7-yl)amino]pyrazolo[3,4-d]pyrimidin-1-yl]ethyl]-N-methyl-acetamide], the pIC50 was 6.60 to 7.00.

Take `COCCS(=O)(=O)NC[C@H]1C[C@H](n2ncc3cnc(Nc4cc5c(cc4OC)CCN(C)C5)nc32)C1` [Example 124, 2-methoxy-N-(((1r,3r)-3-(6-((6-methoxy-2-methyl-1,2,3,4-tetrahydroisoquinolin-7-yl)amino)-1H-pyrazolo[3,4-d]pyrimidin-1-yl)cyclobutyl)methyl)ethane-1-sulfonamide]: the pIC50 was > 7.00.

With `COc1cc2c(cc1Nc1ncc3cnn(C(C)C)c3n1)CN(C)CC2` [Example 104, N-(1-isopropylpyrazolo[3,4-d]pyrimidin-6-yl)-6-methoxy-2-methyl-3,4-dihydro-1H-isoquinolin-7-amine], the pIC50 was > 7.00.

Turning to `CN1CCc2ccc(Nc3ncc4cnn(C5COC5)c4n3)cc2C1` [Example 1, 2-methyl-N-(1-(oxetan-3-yl)-1H-pyrazolo[3,4-d]pyrimidin-6-yl)-1,2,3,4-tetrahydroisoquinolin-7-amine], the pIC50 is > 7.00.

In the case of `COc1cc2c(cc1Nc1ncc3cnn([C@H]4CC[C@H](C(N)=O)CC4)c3n1)CN(C)CC2` [Example 38, (1r,4r)-4-(6-((6-methoxy-2-methyl-1,2,3,4-tetrahydroisoquinolin-7-yl)amino)-1H-pyrazolo[3,4-d]pyrimidin-1-yl)cyclohexane-1-carboxamide], the pIC50 is > 7.00.

With `COc1cc2c(cc1Nc1ncc3cnn([C@H]4C[C@H](CO)C4)c3n1)CN(C)CC2` [Example 65, trans-[3-[6-[(6-methoxy-2-methyl-3,4-dihydro-1H-isoquinolin-7-yl)amino]pyrazolo[3,4-d]pyrimidin-1-yl]cyclobutyl]methanol], the negative-log IC50 (pIC50) was > 7.00.
